Source: the Deep4Chem optical property database
Values belong to the compound of their own block, whether it stands above or below them.

Experiment: solvent given as SMILES

- absorption maximum (in CC#N): 390 nm
- absorption maximum (in CO): 393 nm
- absorption maximum (in ClCCl): 395 nm
SMILES: O=C1c2ccccc2-c2c(-c3cc(Cl)ccc3O)[nH]c(=O)n21

SMILES: CC(C)(C)c1ccc2c(c1)c1cc(C(C)(C)C)ccc1n2-c1ccc2oc3nc4oc5ccc(C(F)(F)F)cc5c4cc3c2c1
- absorption maximum (in C1CCCCC1): 343 nm
- absorption maximum (in C1CCOC1): 338 nm
- absorption maximum (in CC#N): 336 nm
- absorption maximum (in CS(C)=O): 337 nm
- absorption maximum (in Cc1ccccc1): 343 nm
- absorption maximum (in ClC(Cl)Cl): 345 nm

SMILES: COc1ccc(C(=O)/C=C/c2ccc(N(C)C)cc2)cc1OC
- absorption maximum (in C1CCOC1): 403 nm
- absorption maximum (in CC#N): 412 nm
- absorption maximum (in CC(=O)O): 426 nm
- absorption maximum (in CC(C)=O): 408 nm
- absorption maximum (in CCO): 419 nm
- absorption maximum (in CN(C)C=O): 416 nm
- absorption maximum (in CO): 421 nm
- absorption maximum (in Cc1ccccc1): 404 nm
- absorption maximum (in ClC(Cl)Cl): 417 nm
- absorption maximum (in c1ccccc1): 406 nm

- absorption maximum (in ClC(Cl)Cl): 608 nm
SMILES: CC1(C)c2ccccc2-c2ccc(N3c4ccc(-c5ccc(/C=C6\C(=O)c7ccc(C(=O)O)cc7C6=O)s5)cc4C4CCCC43)cc21 (configuration not stated)

- absorption maximum (in C1COCCO1): 369 nm
SMILES: N#Cc1ccc(/C=C2\N=C(c3ccccc3)OC2=O)cc1

- absorption maximum (in C1CCCCC1): 339 nm
- absorption maximum (in C1CCOC1): 342 nm
- absorption maximum (in C1COCCO1): 341 nm
- absorption maximum (in CC#N): 334 nm
- absorption maximum (in CC(C)(C)O): 345 nm
- absorption maximum (in CC(C)O): 340 nm
- absorption maximum (in CCCCCC): 339 nm
- absorption maximum (in CCCCO): 340 nm
- absorption maximum (in CCO): 340 nm
- absorption maximum (in CCOC(C)=O): 340 nm
- absorption maximum (in CN(C)C=O): 344 nm
- absorption maximum (in CO): 341 nm
- absorption maximum (in CS(C)=O): 346 nm
- absorption maximum (in ClC(Cl)Cl): 337 nm
- absorption maximum (in ClCCl): 335 nm
- absorption maximum (in O): 342 nm
- absorption maximum (in OCCO): 342 nm
SMILES: Cc1cc(O)c(C(C)C)cc1/N=C/c1ccc(O)cc1

SMILES: CC(C)(C)c1ccc2c(c1)c1cc(C(C)(C)C)ccc1n2-c1ccc(S(=O)(=O)c2ccc(-n3c4ccc(C(C)(C)C)cc4c4cc(C(C)(C)C)ccc43)cn2)nc1
- absorption maximum (in Cc1ccccc1): 365.77 nm

- absorption maximum (in CCO): 646 nm
- absorption maximum (in CO): 643 nm
- absorption maximum (in CS(C)=O): 652 nm
- absorption maximum (in O): 639 nm
SMILES: CN1/C(=C/C=C(/C=C/c2sc3ccccc3[n+]2C)c2ccc(C(F)(F)F)cc2)Sc2ccccc21

SMILES: CCC1=C(C)C2=Cc3c(I)c(I)c(I)n3[B-](F)(F)[N+]2=C1C
- absorption maximum (in C1CCCCC1): 543.5 nm
- absorption maximum (in CC(C)=O): 528 nm
- absorption maximum (in CCO): 536 nm
- absorption maximum (in CCOC(C)=O): 532 nm
- absorption maximum (in CO): 531.5 nm
- absorption maximum (in OCC(F)(F)F): 523 nm

- absorption maximum (in CCO): 330 nm
SMILES: COC(=O)C(CCCCNC(=O)CCNc1cccc2ccccc12)NC(C)=O (configuration not stated)

SMILES: CC(=O)[B-]1(C(C)=O)OC(C)=CC(c2ccc3ccccc3c2)=[O+]1
- absorption maximum (in CC#N): 380 nm
- absorption maximum (in ClC(Cl)(Cl)Cl): 380 nm

- absorption maximum (in C1CCCCC1): 307 nm
SMILES: COC(=O)c1nc(Br)c(-c2ccccc2)o1

SMILES: CC(C)(C)c1ccc2c3c(c4ccc(C(C)(C)C)cc4c2c1)=[N+]1C(=C(c2ccccc2)c2c(Br)c4c5ccc(C(C)(C)C)cc5c5cc(C(C)(C)C)ccc5c4n2[B-]1(F)F)C=3Br
- absorption maximum (in C1CCCCC1): 689 nm
- absorption maximum (in C1CCOC1): 686 nm
- absorption maximum (in CC#N): 682 nm
- absorption maximum (in Cc1ccccc1): 691 nm
- absorption maximum (in ClCCl): 689 nm

- absorption maximum (in ClC(Cl)Cl): 506 nm
SMILES: CC1=CC(C)=[N+]2C1=C(c1ccc(I)cc1)c1c(C)cc(C)n1[B-]21Oc2ccc3ccccc3c2-c2c(ccc3ccccc23)O1

- absorption maximum (in ClCCl): 296 nm
SMILES: CCCCCCn1c2ccccc2c2cc(-c3ccc(-c4cc(-c5ccccn5)nc(-c5ccccn5)c4)cc3)ccc21

SMILES: N#Cc1c(-n2c3ccc(Br)cc3c3cc(Br)ccc32)c(-n2c3ccc(Br)cc3c3cc(Br)ccc32)c(C#N)c(-n2c3ccc(Br)cc3c3cc(Br)ccc32)c1-n1c2ccc(Br)cc2c2cc(Br)ccc21
- absorption maximum (in Cc1ccccc1): 339 nm

- absorption maximum (in ClCCl): 330 nm
SMILES: Cc1c(C)c(-c2cccnc2)c(C)c(C)c1B(c1c(C)c(C)c(-c2cccnc2)c(C)c1C)c1c(C)c(C)c(-c2cccnc2)c(C)c1C

SMILES: O=c1oc2ccccc2c2cc(N3c4ccccc4Oc4ccccc43)ccc12
- absorption maximum (in Cc1ccccc1): 395 nm

- absorption maximum (in ClC(Cl)Cl): 399.5 nm
SMILES: F[B-]1(F)OC(c2cccc(Br)c2)=Cc2c3ccccc3cc[n+]21

- absorption maximum (in ClCCl): 376 nm
SMILES: CCOC(=O)/N=c1/oc2cc(OC)cc(OC)c2cc1C#N

- absorption maximum (in C1COCCO1): 337 nm
- absorption maximum (in CC#N): 335 nm
- absorption maximum (in CC(C)(C)O): 345 nm
- absorption maximum (in CC(C)O): 345 nm
- absorption maximum (in CCCCO): 345 nm
- absorption maximum (in CCOC(C)=O): 339 nm
- absorption maximum (in CN(C)C=O): 344 nm
- absorption maximum (in CO): 343 nm
- absorption maximum (in ClCCl): 339 nm
- absorption maximum (in O): 347 nm
SMILES: COc1ccc(C(=O)/C=C2\C(=O)Nc3ccccc32)cc1

- absorption maximum (in CCO): 630 nm
- absorption maximum (in CS(C)=O): 485 nm
- absorption maximum (in O): 573 nm
SMILES: CC1(C)C(/C=C/c2cc3ccc(O)cc3oc2=O)=[N+](CCCS(=O)(=O)[O-])c2ccc(S(=O)(=O)O)cc21

- absorption maximum (in ClCCl): 405 nm
SMILES: CCCCCCc1cc2c3c(c1)c(=C(c1ccccc1)c1ccccc1)c1cc(CCCCCC)cc4c1N3c1c(cc(CCCCCC)cc1c4=C(c1ccccc1)c1ccccc1)c2=C(c1ccccc1)c1ccccc1

SMILES: O=Cc1ccc(N(c2ccc(C=O)cc2)c2ccc(-c3ccc4c(c3)C(=O)c3ccccc3C4=O)cc2)cc1
- absorption maximum (in C1CCOC1): 374 nm
- absorption maximum (in CCCCCC): 368 nm
- absorption maximum (in CCOC(C)=O): 371 nm
- absorption maximum (in CCOCC): 369 nm
- absorption maximum (in Cc1ccccc1): 376 nm
- absorption maximum (in ClC(Cl)(Cl)Cl): 376 nm
- absorption maximum (in ClCCl): 379 nm

- absorption maximum (in ClCCl): 386 nm
SMILES: O=C1c2cccc3c(C#CC#Cc4ccc5c6c(cccc46)C(=O)N(c4ccccc4)C5=O)ccc(c23)C(=O)N1c1ccccc1

- absorption maximum (in CS(C)=O): 403 nm
- absorption maximum (in O): 394 nm
SMILES: CCCCCn1c2ccccc2c(=O)c2ccccc21

- absorption maximum (in C1CCCCC1): 365 nm
SMILES: C1=C(c2ccccc2)B(c2ccccc2)Nc2c1ccc1ccccc21

- absorption maximum (in C1CCOC1): 299 nm
- absorption maximum (in C1COCCO1): 310 nm
SMILES: c1ccc(-c2ccc(-c3ccc(-c4ccccc4)cc3)cc2)cc1

- absorption maximum (in ClCCl): 409 nm
SMILES: CN(C)c1ccc(/C=C/c2nc(/C=C/c3ccc(N(c4ccccc4)c4ccccc4)cc3)cc(/C=C/c3ccc(N(c4ccccc4)c4ccccc4)cc3)n2)cc1

- absorption maximum (in ClCCl): 361 nm
SMILES: COc1ccc(N(c2ccc(OC)cc2)c2ccc(-c3ccc4nc5ccccc5c(=O)n4c3)cc2)cc1

- absorption maximum (in C1CCCCC1): 397.6 nm
SMILES: COC(=O)c1c(C(=O)OC)c2ccc(-c3ccccc3)nn2c1C

SMILES: c1ccc(Cn2c3sccc3c3c4nsnc4c4c5ccsc5n(Cc5ccccc5)c4c32)cc1
- absorption maximum (in Cc1ccccc1): 424 nm
- absorption maximum (in ClCCl): 424 nm

SMILES: O=C1c2ccccc2-c2ccc(Nc3nc(Cl)nc(Cl)n3)c3cccc1c23
- absorption maximum (in CC(C)=O): 405.02 nm
- absorption maximum (in CC(C)O): 411.86 nm
- absorption maximum (in CCCCOCCCC): 400.96 nm
- absorption maximum (in CCOC(C)=O): 403.06 nm
- absorption maximum (in CO): 410 nm
- absorption maximum (in Cc1ccccc1): 411.02 nm
- absorption maximum (in Clc1ccccc1): 410 nm
- absorption maximum (in O=C1CCCCC1): 410 nm

- absorption maximum (in CC#N): 539 nm
- absorption maximum (in CCCCCC): 562 nm
- absorption maximum (in CO): 558 nm
SMILES: COc1ccc(N2c3cc(OC)ccc3N=c3cc4c(cc32)=Nc2cc(C(C)(C)C)cc(C(C)(C)C)c2O4)cc1

- absorption maximum (in CO): 637 nm
- absorption maximum (in CS(C)=O): 645 nm
- absorption maximum (in O): 633 nm
SMILES: CCCN1/C(=C/C=C/C=C/C2=[N+](CCC)c3ccccc3C2(C)C)C(C)(C)c2ccccc21

- absorption maximum (in ClC(Cl)Cl): 439 nm
SMILES: COc1ccc(C2=Cc3ccc4ccccc4[n+]3[B-](F)(F)O2)cc1
